Legend:
Format in all cases: cell-based, mouse
[1] = test system: corpus cavernosal strips (CCS); assay: cAMP levels in isolated CCS (penile organ culture) in response to adenosine
Procedure: FIG. 17. A2BR signaling is required for adenosine-mediated corpus cavernosal strips (CCS) relaxation. (a) CCS of wild type mice were treated with different concentrations of theophiline (1-10 μM) in the presence or absence of adenosine (100 μM). The force changes were measured by force transducer. Data are expressed as mean±SE. *p<0.05, adenosine treated versus the control, **p<0.05, theophiline treated versus the untreated, N=5. (b) CCS from wild type, A2AR, A1R A2BR and A3R-deficient mice were treated with different concentrations of adenosine. The relaxation was measured by force transducer. Data are expressed as mean±SE. *p<0.05, adenosine treated versus the wild type. […] 10 min after treatment, cellular extracts were collected and cAMP levels were measured by using a commercial enzyme immunoassay kit (Amersham Pharmacia). Data are expressed as mean±SE. *p<0.05, adenosine treated versus the control without treatment; **p<0.05, adenosine treated with MRS1706 versus the adenosine treated alone; ***p<0.05, CCS of A2BR-deficient mice treated with adenosine versus the CCS of wild type mice treated with adenosine. […]
In vitro corpus cavernosum tissue culture. […] Subsequently cavernosal strips were removed at and immediately frozen in liquid nitrogen for phosphorylation of myosin light chain determined by western blot analysis (see below). […]

[2] = test system: corpus cavernosal strips (CCS); assay: EFS-induced relaxation of CCS of SCD transgenic mice and controls
Procedure: FIG. 21. Priapic activity seen in SCD transgenic mice is dependent on elevated adenosine in penis via A2BR signaling. (a) Adenosine levels in the penis increased in SCD transgenic mice. Perchloric acid extracts of penile tissues from SCD transgenic mice and control mice were analyzed by HPLC to determine the levels of adenosine. The data are expressed as mean±SE. *p<0.005, (control n=5 and SCD transgenic mice n=6), SCD transgenic mice versus the controls. (b) Increased corpus cavernosum strips (CCS) relaxation by electrical field stimulation (EFS) in SCD transgenic mice. Relaxation effect of EFS with different voltages (0-30V) at 30 Hz and 0.5 ms pulse width, alternating polarity between pulses, in 10 μM phenylephrine-precontracted CCS from the controls (n=5) and SCD transgenic mice (n=5). (c-e) Prolonged penile erection seen in SCD transgenic mice is due to high levels of adenosine in the penis via A2BR signaling. Average EFS-induced relaxation from the PE-precontracted CC strips of the controls and SCD transgenic mice treated without or with PEG-ADA, MRS1706 or ZM241389. EFS-induced force change (c), duration of relaxation by EFS (d) and area under basal line (e) were representative of the CCS relaxation. (n=5 for the controls and n=5 for SCD transgenic mice with or without PEG-ADA, MRS1706 or ZM241389 treatment, respectively). Data are given as means±SE. *p<0.05, SCD transgenic mice versus the controls, **p<0.05, CCS of […] with PEG-ADA, MRS1706 or ZM241389 treatment versus CCS of SCD transgenic mice without treatment; ***p<0.05, CCS of the control mice with MRS1706 and/or L-NAME treatment versus CCS of the control mice without treatment.
Sickle cell disease (SCD) transgenic mice, expressing exclusively human sickle hemoglobin, were also used. These mice were age-matched, adult male homozygotes [SS^−/−, consisting of a transgene and two targeted gene deletions: (Tg (Hu-miniLCR alpha 1G gamma A gamma delta beta s) Hba0//Hba0 Hbb0//Hbb00) and heterozygotes (SS^−/+, SS^−/− genotype except Hbb0//Hbb+), developed on a mixed-strain background (mouse strains FVB/N, 129, DBA/2, C57BL/6, Black Swiss)^94,95.
(§1) Function experiments. The tunica albuginea was cut longitudinally, starting at the most proximal point of the corpus cavernosum (CC) toward the penile shaft, and the erectile tissue was partially dissected free from the tunica. One strip of tissue (0.3×0.3×3 mm) was obtained from each corpus cavernosum. The contractility of each isolated corpus cavernosum smooth muscle cells (CCSM) strip was measured using an isometric force transducer (AD Instrument Inc., Georgia, Vt., USA). The strip was mounted in a thermostatically controlled tissue bath containing aerated PSS (mM: 119 NaCl, 4.7 KCl, 24 NaHCO 3, 1.2 KH2PO4, 2.5 CaCl2, 1.2 MgSO4, 0.023 EDTA, and 11 glucose; 5 ml volume, 95% O2 and 5% CO2, 37° C.) and stretched to a resting tension of 0.1 mN. The contractile responses of the strips were analysed by adding 10 μM phenylephrine to the bath, and force changes were recorded in response to drug application and to electrical field stimulation. The particular electrical field stimulation parameters of 0-30V, 30 HZ with a pulse width of approximately 0.5 ms, are commonly used in the mice. […] The changes of cAMP and cGMP contents in CC strips were subsequently measured by commercial enzyme immunoassay kit (Amersham Pharmacia) (see below).

[3] = test system: corpus cavernosal strips (CCS); assay: Adenosine-induced relaxation of corpus cavernosal strips (CCS)
Procedure: FIG. 16. […] CCS of wild type mice were treated with different concentrations of adenosine with or without DCF (5 μM), a specific inhibitor of adenosine deaminase. Then the extent (mN) of force was monitored. (b) CCS of wild type mice were treated with 100 μM adenosine in the presence of different concentrations of DCF (0-100 uM). Then the extent of force was measured. Data are expressed as mean±SE. *p<0.05, adenosine treated versus the control, **p<0.05, DCF treated versus the adenosine treated.
FIG. 17. A2BR signaling is required for adenosine-mediated corpus cavernosal strips (CCS) relaxation. (a) CCS of wild type mice were treated with different concentrations of theophiline (1-10 μM) in the presence or absence of adenosine (100 μM). The force changes were measured by force transducer. Data are expressed as mean±SE. *p<0.05, adenosine treated versus the control, **p<0.05, theophiline treated versus the untreated, N=5. (b) CCS from wild type, A2AR, A1R A2BR and A3R-deficient mice were treated with different concentrations of adenosine. The relaxation was measured by force transducer. Data are expressed as mean±SE. *p<0.05, adenosine treated versus the wild type. (c) CCS were isolated from wild type and A2BR-deficient mice and treated with different concentrations of adenosine in the presence or absence of L-NAME (100 μM) or MRS1706 (10 μM). 10 min after treatment, cellular extracts were collected and cAMP levels were measured by using a commercial enzyme immunoassay kit (Amersham Pharmacia). Data are expressed as mean±SE. *p<0.05, adenosine treated versus the control without treatment; **p<0.05, adenosine treated with MRS1706 versus the adenosine treated alone; ***p<0.05, CCS of A2BR-deficient mice treated with adenosine versus the CCS of wild type mice treated with adenosine. N=6-7. (d) CCS of A2BR and ADA double deficient mice lost the hypersensitivity to nerve stimulation compared to ADA deficient mice.
as §1

[4] = CCS of SCD transgenic mice versus untreated CCS

SMILES | adenosine-mediated induction of cAMP was inhibited ([1]; CCS, MRS1706 10 μM, L-NAME 100 μM) | force, duration and area under baseline of EFS-induced relaxation [2, 4] | force, duration and area under baseline of EFS-induced relaxation ([2]; CCS of the controls) | cAMP levels ([1]; wild type penile organ culture, 10 min) | CCS relaxation ([3]; A1R, A2AR and A3R deficient mice and wild type mice) | CCS relaxation ([3]; CCS from A2BR deficient mice) | CCS relaxation ([3]; CCS from wild type mice, different concentrations)
CCCn1c(=O)c2[nH]c(-c3ccc(OCC(=O)Nc4ccc(C(C)=O)cc4)cc3)nc2n(CCC)c1=O [MRS1706] | inhibited | reduced the force, duration and area under baseline | decreased the force, duration and area under baseline |  |  |  | 
Nc1nc(NCCc2ccc(O)cc2)nc2nc(-c3ccco3)nn12 [ZM241385] |  | not |  |  |  |  | 
Nc1ncnc2c1ncn2[C@@H]1O[C@H](CO)[C@@H](O)[C@H]1O [adenosine] |  |  |  | induced cAMP levels in a dose-dependent manner | dose-dependent increase in relaxation | completely absent | induced CCS relaxation in a dosage dependent manner

Source: patent publication US20100254965A1, “Adenosine Signaling in Diagnosis, Treatment, and Prevention of Priapism and Erectile Dysfunction” (BOARD OF REGENTS ,THE UNIVERSITY OF TEXAS SYSTEM, priority 2006, published 2010)
